The source made the active and inactive calls.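 How the source made its calls: active means growth-inhibition EC50 no more than tenfold above the top tested dose; inconclusive means flat fit between 30% and 70% inhibition, or unreliable fit; inactive means EC50 more than tenfold above the top tested dose.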
test system: E. coli NEB5alpha growth, BacTiter-Glo luminescence, 4 h; experiment: Escherichia coli growth inhibition, dose response, counter-screen for MEX-5/POS-1 RNA-binding inhibitor project, luminescence, NEB5alpha (AID 1959);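 further: pUC19-transformed ampicillin-resistant cells grown in LB with ampicillin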

Row | SMILES | EC50
1 | Oc1cccc(/C=N/N=C/c2cccc(O)c2O)c1O | > 11 µM (inactive)
2 | Cc1ccc(-n2[nH]c(C)c(/C=N/NC(=O)c3ccc(O)cc3O)c2=O)cc1 | > 11 µM (inactive)
3 | COc1ccccc1N1C(=O)NC(=O)/C(=C/c2ccc([N+](=O)[O-])s2)C1=O | > 11 µM (inactive)
4 | CC(=O)c1c(O)cc(O)cc1CC(=O)O | > 11 µM (inactive)
5 | Cc1ccc(-c2cc(-c3ccco3)c(C#N)c(=O)[nH]2)cc1 | > 11 µM (inactive)
6 | Cn1cccc1/C=C1\C(=O)NC(=O)N(CCC2=CCCCC2)C1=O | > 11 µM (inactive)
7 | Cc1nn(C)c(C)c1CN(C)C(=O)C1c2ccccc2Oc2ccccc21 | > 11 µM (inactive)
8 | CCCOc1cccc(C2C(C(=O)c3ccco3)=C(O)C(=O)N2c2nnc(C)s2)c1 (configuration not stated) | > 11 µM (inactive)
9 | Fc1ccc2c(c1)C1C=CCC1C(c1cc3c(cc1Br)OCO3)N2 (configuration not stated) | > 11 µM (inactive)
10 | CN(C)[C@@H]1C(=O)C(C(N)=O)=C(O)[C@@]2(O)C(=O)C3=C(O)c4c(O)cccc4[C@@](C)(O)C3[C@H](O)C12 (some centres not stated) | 7.38 µM
11 | CCCCNC(=O)c1cc2c(=O)n3cccc(C)c3nc2n(Cc2ccncc2)c1=N | > 11 µM (inactive)
12 | Cc1ccc[n+](-c2[nH]c(=O)sc2/C=N/NC(=O)c2ccccc2[O-])c1 | > 11 µM (inactive)
13 | Cc1c(C(=O)O)cccc1-n1c(C)cc(/C=C2\C(=O)NC(=O)N(c3ccc4c(c3)OCO4)C2=O)c1C | > 11 µM (inactive)
14 | Nc1ccc2c(c1)C/C(=C/c1ccco1)C2=O | > 11 µM (inactive)
15 | C[C@@H]1Cc2c(O)c(O)cc(O)c2C(=O)O1 | > 11 µM (inactive)
16 | O=C(N=C1SC2CS(=O)(=O)CC2N1c1ccccc1)C1CC1 (configuration not stated) | > 11 µM (inactive)
17 | COc1cc([N+](=O)[O-])cc(/C=N/NC(=O)CC#N)c1O | > 11 µM (inactive)
18 | CC1(OC(=O)c2ccco2)C(=O)C=C2C=C(c3ccc(C#N)cc3)OC=C2C1=O (configuration not stated) | > 11 µM (inactive)
19 | CN(C)C1=NC(=O)/C(=C/c2ccc(-c3ccc(S(N)(=O)=O)cc3)o2)S1 | > 11 µM (inactive)
20 | Cc1cc(=O)oc2c(CN3CCC(C)CC3)c(O)c(Cl)cc12 | > 11 µM (inactive)
21 | Cc1sc(/C=C2\C(=O)ON=C2c2ccccc2)cc1Br | > 11 µM (inactive)
22 | CCCN1CCCc2cc(CN)ccc21 | > 11 µM (inactive)
23 | CCN(CC)c1ccc(/C=c2/sc3nnc(-c4ccccc4C)n3c2=O)cc1 | > 11 µM (inactive)
24 | O=[N+]([O-])c1cccc(/C=C/c2nc(C=Nc3ccccc3)c(O)o2)c1 | > 11 µM (inactive)
25 | COc1cc(/C=C2/C(=O)ON=C2C)ccc1OCc1ccccc1F | > 11 µM (inactive)

Row | SMILES | EC50
26 | O=C(OCC(=O)c1ccco1)c1ccc2ncsc2c1 | > 11 µM (inactive)
27 | COc1ccc(Nc2nc(-c3cccnc3)nc3ccccc23)cn1 | > 11 µM (inactive)
28 | Oc1[nH]c2ccc(Br)cc2c1N=Nc1nn[nH]n1 | > 11 µM (inactive)
29 | O=C1C(Cl)=C(Nc2ccccc2O)C(=O)N1c1ccccc1 | > 11 µM (inactive)
30 | Cc1nonc1OCCNCCNc1ccc([N+](=O)[O-])c2cccnc12 | > 11 µM (inactive)
31 | C(=N\Nc1nc2ccccc2[nH]1)/c1ccccn1 | > 11 µM (inactive)
32 | COc1ccccc1-n1c(O)c(/C=C2\C=Nc3ccccc32)c(=O)[nH]c1=O | > 11 µM (inactive)
33 | COC(=O)Cn1cc(C=C2C(=O)N(C)C(=O)N(C)C2=O)c2ccccc21 | > 11 µM (inactive)
34 | CCOC(=O)c1c[nH]c2nc(C)ccc2c1=O | > 11 µM (inactive)
35 | O=C(NNS(=O)(=O)c1ccc([N+](=O)[O-])cc1)C(=O)Nc1cccc(C(=O)O)c1 | > 11 µM (inactive)
36 | CCCNC(=O)c1ccc2c(=O)c(O)c(-c3ccc(F)cc3)[nH]c2c1 | > 11 µM (inactive)
37 | N#CC1=C(N)Oc2cc(O)c(Cl)cc2C1c1ccccc1F (configuration not stated) | > 11 µM (inactive)
38 | C=CCOc1cccc(C2C(C(=O)c3ccco3)=C(O)C(=O)N2Cc2ccco2)c1 (configuration not stated) | > 11 µM (inactive)
39 | Cc1ccc(S(=O)(=O)N2CCOCC2)cc1C(=O)Nc1ccc(S(=O)(=O)Nc2nccs2)cc1 | > 11 µM (inactive)
40 | O=C1CSC(=S)N1/N=C/c1ccc(O)c(O)c1O | > 11 µM (inactive)
41 | CC1(C)CC(=O)C2=C(C1)OC(N)=C(C#N)C2c1ccccc1 (configuration not stated) | > 11 µM (inactive)
42 | Cc1cccc(N=C2NC(=O)CS2)c1 | > 11 µM (inactive)
43 | COc1ccc(C(=O)c2sc3nc(C)cc(-c4cccs4)c3c2N)cc1OC | > 11 µM (inactive)
44 | O=C(N=c1ccn(-c2nc3ccccc3nc2NS(=O)(=O)c2ccccc2)cc1)c1ccccc1Cl | > 11 µM (inactive)
45 | COc1ccc(C2CC(=O)C(C=NCCCO)=C(O)C2)cc1 (configuration not stated) | > 11 µM (inactive)
46 | O=Cc1c(-c2ccccc2)nc2ccccn12 | > 11 µM (inactive)
47 | CCOC(=O)CSc1nc2ccc(Nc3nc(N4CCOCC4)nc(N4CCOCC4)n3)cc2s1 | > 11 µM (inactive)
48 | C=CCOc1ccc(C2C(C(=O)c3ccco3)=C(O)C(=O)N2c2nnc(C)s2)cc1 (configuration not stated) | > 11 µM (inactive)
49 | COC(=O)c1cc2n3ccccc3c(C)c(-c3ccccc3)c-2c1C(=O)OC | > 11 µM (inactive)
50 | O=C(NNc1ccccn1)C(=O)NNS(=O)(=O)c1ccc(F)cc1 | > 11 µM (inactive)

Row | SMILES | EC50
51 | Cc1ccc(/C=C2\C(=O)NC(=S)N(c3ccc(F)cc3)C2=O)o1 | > 11 µM (inactive)
52 | N#C/C(=C\c1cc(O)c(O)c(O)c1)C(N)=O | > 11 µM (inactive)
53 | CC(C)OC(=O)C(C#N)c1nc2ccccc2nc1N1CCCC1 (configuration not stated) | > 11 µM (inactive)
54 | COC(=O)Cn1cc(C=C2C(=O)NC(=O)NC2=O)c2ccccc21 | > 11 µM (inactive)
55 | CC(C)c1ccc(C2C(C#N)=C(N)N3C(=C2C#N)Sc2ccccc23)cc1 (configuration not stated) | > 11 µM (inactive)
56 | Cc1ccc2ccc(C3C(=O)c4ccccc4C3=O)nc2c1 | > 11 µM (inactive)
57 | Nc1nnc2c(n1)CCCC2 | > 11 µM (inactive)
58 | O=c1oc2ccc(Cl)cc2nc1/C=C(\O)c1cccs1 | > 11 µM (inactive)
59 | O=C(/C=C/c1ccc([N+](=O)[O-])o1)NNC(=O)c1ccc(F)cc1 | 0.232 µM
60 | COc1cc(S(=O)(=O)Nc2ccc(C)cc2)ccc1N=Cc1c(C)c(C#N)c(=O)n(C)c1O | > 11 µM (inactive)
61 | COc1cc(/C=C2\C(=O)NN(c3ccccc3)C2=O)cc([N+](=O)[O-])c1O | > 11 µM (inactive)
62 | O=C(NNC(=O)c1ccccc1O)c1ccc(S(=O)(=O)Nc2ccccc2F)cc1 | > 11 µM (inactive)
63 | O=C(O)c1ccc2nc(-c3ccco3)c(-c3ccco3)nc2c1 | > 11 µM (inactive)
64 | COc1c(/C=C2/C(=O)NC(=O)N(C)C2=O)c(CCN(C)C(=O)c2ccccc2)cc2c1OCO2 | > 11 µM (inactive)
65 | CS/C(=N\S(=O)(=O)c1cccs1)Nc1cccc(Cl)c1C | > 11 µM (inactive)
66 | CC(=O)Oc1oc(-c2ccccc2)nc1C=Nc1ccc(N(C)C)cc1 | > 11 µM (inactive)
67 | N#Cc1c(N)n(-c2cccc(C(=O)O)c2)c2nc3ccccc3nc12 | > 11 µM (inactive)
68 | CCOC(=O)Cc1csc(NC(=O)c2sc3nc4cc(C)ccc4cc3c2N)n1 | > 11 µM (inactive)
69 | CCC(=O)OC1(C)C(=O)C=C2C=C(C3CC3)OC=C2C1=O (configuration not stated) | > 11 µM (inactive)
70 | O=C(O)c1ccc2c(c1)C(=O)/C(=C\c1ccco1)C2=O | > 11 µM (inactive)
71 | COc1cc(OC)c(C2C(C#N)=C(N)OC3=C2C(=O)CC(C)C3)cc1OC (configuration not stated) | > 11 µM (inactive)
72 | CN=C1S/C(=C\c2cn(CC(=O)OC)c3ccccc23)C(=O)N1C | > 11 µM (inactive)
73 | O=C(O)c1ccc(S(=O)(=O)/N=C2\C=C(Nc3ccccc3F)C(=O)c3ccccc32)cc1 | > 11 µM (inactive)
74 | COc1ccc(NC(=O)Nc2cc(C)cc(C)c2)cn1 | > 11 µM (inactive)
75 | N#CC1=C(N)C2=C(N3CCCCC3)CCCC2C1(C#N)C#N (configuration not stated) | > 11 µM (inactive)

Row | SMILES | EC50
76 | O=C(N/N=C/c1cc(Cl)cc([N+](=O)[O-])c1O)c1ccc2c(c1)OCO2 | > 11 µM (inactive)
77 | O=C(/C=C/c1ccc(O)c(O)c1)OC(Cc1ccc(O)c(O)c1)C(=O)O (configuration not stated) | > 11 µM (inactive)
78 | N#CC1=C(N)Oc2ccc3ccc(O)cc3c2C1c1ccsc1 (configuration not stated) | > 11 µM (inactive)
79 | CN(C)c1ccc(/C=C2\N=C(C(C)(C)C)OC2=O)cc1 | > 11 µM (inactive)
80 | CCOC1(OCC)N=C(N)C2(C#N)C(c3ccc(NC(C)=O)cc3)C12C#N (configuration not stated) | > 11 µM (inactive)
81 | COCCn1c(N)c(NCc2ccccc2)c(=O)[nH]c1=O | > 11 µM (inactive)
82 | CCOC(=O)[C@@]1(C#N)C(c2ccc(Cl)c(Cl)c2)[C@H](C(N)=O)N2C=C(C(C)=O)C=C[C@H]21 (some centres not stated) | > 11 µM (inactive)
83 | CCCCC1=CC2=CC(=O)C(C)(OC(=O)CCc3ccccc3)C(=O)C2=CO1 (configuration not stated) | > 11 µM (inactive)
84 | COC(=O)C1=NN(C(=O)c2ccc(C)cc2)C(O)(c2ccc(Cl)cc2)C1 (configuration not stated) | > 11 µM (inactive)
85 | Cc1c(N=Cc2c(O)n(Cc3ccccc3)c(=O)[nH]c2=O)c(=O)n(-c2ccccc2)n1C | > 11 µM (inactive)
86 | COc1ccc(-c2cn[nH]c2-c2ccc(OCC(=O)NN)cc2O)cc1OC | > 11 µM (inactive)
87 | O=C(N/N=C/c1cc(Cl)cc([N+](=O)[O-])c1O)C(O)(c1ccccc1)c1ccccc1 | > 11 µM (inactive)
88 | COc1cc(/C=N/c2oc(-c3ccccc3)cc2C#N)ccc1O | > 11 µM (inactive)
89 | COc1ccc(/C=C2\N=C(C)OC2=O)cc1OC | > 11 µM (inactive)
90 | CC(C)OCCCn1c(=NC(=O)c2cccs2)c(C#N)cc2c(=O)n3ccccc3nc21 | > 11 µM (inactive)
91 | CN1CC=C2C(C#N)=C(N)C(C#N)(C#N)[C@H](c3cccc(Cl)c3)C2C1 (some centres not stated) | > 11 µM (inactive)
92 | CCc1ccc(S(=O)(=O)Nc2cc(SCC(=O)O)c(O)c3ccccc23)cc1 | > 11 µM (inactive)
93 | CC(NC(=O)COc1ccccc1)C(=O)OCC(=O)c1cc2ccccc2o1 (configuration not stated) | > 11 µM (inactive)
94 | O=C1NC(=S)/C(=C\c2ccc(-c3ccccc3Cl)o2)S1 | > 11 µM (inactive)
95 | CC(C)(C)c1ccc(OCc2ccc(C(=O)Nc3cccnc3)o2)cc1 | > 11 µM (inactive)
96 | COc1ccc(C2CC(c3cccs3)=NN2c2ccc(C=O)cc2)cc1 (configuration not stated) | > 11 µM (inactive)
97 | CC(C)Cc1nnc(NC(=O)CCC(=O)N2CC(C)CC(C)C2)s1 (configuration not stated) | > 11 µM (inactive)

Source: PubChem BioAssay AID1959 (Broad Institute, 2009)
